Experimental data taken from ChEMBL document CHEMBL4673346, “Discovery of a benzimidazole series as the first highly potent and selective ACSL1 inhibitors” (Bioorg Med Chem Lett, 2021).

Key:
[1] = biological target: T1, Long-chain-fatty-acid--CoA ligase 1 (Mus musculus, UniProt P41216); test: Inhibition of recombinant mouse ACSL1 assessed as reduction in […] prodution incubated for 90 mins in presence of Coenzyme A, ATP and MgCl2 by MALDI-TOF MS analysis
T1 sequence (P41216 whole entry): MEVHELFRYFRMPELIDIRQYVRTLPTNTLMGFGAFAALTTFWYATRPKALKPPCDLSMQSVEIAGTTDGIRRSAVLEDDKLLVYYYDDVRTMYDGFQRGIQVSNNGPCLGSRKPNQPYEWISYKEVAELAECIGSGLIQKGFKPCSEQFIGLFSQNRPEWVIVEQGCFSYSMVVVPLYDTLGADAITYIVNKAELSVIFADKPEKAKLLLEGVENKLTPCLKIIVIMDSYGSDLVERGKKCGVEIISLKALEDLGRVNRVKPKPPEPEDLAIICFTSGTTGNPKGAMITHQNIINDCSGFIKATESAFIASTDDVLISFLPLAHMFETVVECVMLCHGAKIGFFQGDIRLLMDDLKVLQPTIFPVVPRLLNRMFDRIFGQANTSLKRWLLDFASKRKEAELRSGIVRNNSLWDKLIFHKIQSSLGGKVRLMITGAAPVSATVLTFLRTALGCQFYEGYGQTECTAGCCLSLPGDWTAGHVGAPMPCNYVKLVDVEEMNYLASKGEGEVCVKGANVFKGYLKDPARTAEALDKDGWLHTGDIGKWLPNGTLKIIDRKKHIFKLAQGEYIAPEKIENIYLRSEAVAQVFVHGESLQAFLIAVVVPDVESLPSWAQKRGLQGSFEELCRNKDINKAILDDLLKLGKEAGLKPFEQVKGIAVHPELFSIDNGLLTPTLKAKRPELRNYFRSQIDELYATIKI

[2] = biological target: T2, Long-chain-fatty-acid--CoA ligase 1 (Homo sapiens, UniProt P33121); test: Inhibition of recombinant human ACSL1 assessed as reduction in […] prodution incubated for 90 mins in presence of Coenzyme A, ATP and MgCl2 by MALDI-TOF MS analysis
T2 sequence (P33121 whole entry): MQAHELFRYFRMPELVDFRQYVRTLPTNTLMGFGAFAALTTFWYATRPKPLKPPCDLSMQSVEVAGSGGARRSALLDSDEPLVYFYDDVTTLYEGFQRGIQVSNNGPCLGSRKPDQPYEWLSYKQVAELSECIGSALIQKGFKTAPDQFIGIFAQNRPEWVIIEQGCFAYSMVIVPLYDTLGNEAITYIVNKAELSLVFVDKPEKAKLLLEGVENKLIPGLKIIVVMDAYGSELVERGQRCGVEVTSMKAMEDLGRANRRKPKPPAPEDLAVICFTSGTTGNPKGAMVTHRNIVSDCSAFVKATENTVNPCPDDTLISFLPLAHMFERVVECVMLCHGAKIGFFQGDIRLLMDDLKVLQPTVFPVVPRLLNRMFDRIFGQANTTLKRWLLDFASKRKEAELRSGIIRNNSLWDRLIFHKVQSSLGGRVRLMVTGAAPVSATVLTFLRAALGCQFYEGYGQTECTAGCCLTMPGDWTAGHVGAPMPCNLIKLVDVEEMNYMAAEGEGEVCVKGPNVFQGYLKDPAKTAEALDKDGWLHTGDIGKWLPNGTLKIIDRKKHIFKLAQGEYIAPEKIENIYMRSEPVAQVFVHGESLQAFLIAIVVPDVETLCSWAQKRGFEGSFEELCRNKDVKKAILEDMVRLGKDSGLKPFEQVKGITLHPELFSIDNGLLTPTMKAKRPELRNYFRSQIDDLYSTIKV

[3] = biological target: T2, Long-chain-fatty-acid--CoA ligase 1; test: Inhibition of ACSL1 (unknown origin) assessed as reduction in […] prodution incubated for 90 mins in presence of Coenzyme A, ATP and MgCl2 by MALDI-TOF MS analysis
[4] = biological target: T3, Long-chain-fatty-acid--CoA ligase 6 (Homo sapiens, UniProt Q9UKU0); test: Inhibition of recombinant human ACSL6 assessed as reduction in […] prodution incubated for 60 mins in presence of Coenzyme A, ATP and MgCl2 by MALDI-TOF MS analysis
T3 sequence (Q9UKU0 whole entry): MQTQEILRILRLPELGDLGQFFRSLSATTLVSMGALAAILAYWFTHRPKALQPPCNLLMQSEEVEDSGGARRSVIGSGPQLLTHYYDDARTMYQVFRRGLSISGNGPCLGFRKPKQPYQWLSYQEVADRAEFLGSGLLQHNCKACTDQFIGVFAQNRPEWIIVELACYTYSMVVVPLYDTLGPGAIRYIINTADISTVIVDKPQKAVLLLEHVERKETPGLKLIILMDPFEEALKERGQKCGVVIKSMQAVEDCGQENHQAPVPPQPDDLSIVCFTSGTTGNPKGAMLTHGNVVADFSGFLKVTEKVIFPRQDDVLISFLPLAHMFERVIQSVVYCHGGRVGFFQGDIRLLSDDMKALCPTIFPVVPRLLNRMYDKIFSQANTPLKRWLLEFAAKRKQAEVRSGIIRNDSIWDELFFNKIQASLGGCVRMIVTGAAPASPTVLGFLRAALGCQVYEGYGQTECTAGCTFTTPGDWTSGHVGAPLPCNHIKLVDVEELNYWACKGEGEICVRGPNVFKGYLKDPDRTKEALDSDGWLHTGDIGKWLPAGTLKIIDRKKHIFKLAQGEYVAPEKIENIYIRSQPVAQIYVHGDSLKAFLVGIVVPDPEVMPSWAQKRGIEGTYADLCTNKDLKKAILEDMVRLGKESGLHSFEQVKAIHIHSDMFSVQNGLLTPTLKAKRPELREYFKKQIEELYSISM

[5] = biological target: Long-chain-fatty-acid--CoA ligase 4 (Homo sapiens, UniProt O60488); test: Inhibition of recombinant human ACSL4 assessed as reduction in […] prodution incubated for 120 mins in presence of Coenzyme A, ATP and MgCl2 by MALDI-TOF MS analysis
[6] = biological target: T4, Long-chain-fatty-acid--CoA ligase 5 (Homo sapiens, UniProt Q9ULC5); test: Inhibition of recombinant human ACSL5 assessed as reduction in […] prodution incubated for 90 mins in presence of Coenzyme A, ATP and MgCl2 by MALDI-TOF MS analysis
T4 sequence (Q9ULC5 whole entry): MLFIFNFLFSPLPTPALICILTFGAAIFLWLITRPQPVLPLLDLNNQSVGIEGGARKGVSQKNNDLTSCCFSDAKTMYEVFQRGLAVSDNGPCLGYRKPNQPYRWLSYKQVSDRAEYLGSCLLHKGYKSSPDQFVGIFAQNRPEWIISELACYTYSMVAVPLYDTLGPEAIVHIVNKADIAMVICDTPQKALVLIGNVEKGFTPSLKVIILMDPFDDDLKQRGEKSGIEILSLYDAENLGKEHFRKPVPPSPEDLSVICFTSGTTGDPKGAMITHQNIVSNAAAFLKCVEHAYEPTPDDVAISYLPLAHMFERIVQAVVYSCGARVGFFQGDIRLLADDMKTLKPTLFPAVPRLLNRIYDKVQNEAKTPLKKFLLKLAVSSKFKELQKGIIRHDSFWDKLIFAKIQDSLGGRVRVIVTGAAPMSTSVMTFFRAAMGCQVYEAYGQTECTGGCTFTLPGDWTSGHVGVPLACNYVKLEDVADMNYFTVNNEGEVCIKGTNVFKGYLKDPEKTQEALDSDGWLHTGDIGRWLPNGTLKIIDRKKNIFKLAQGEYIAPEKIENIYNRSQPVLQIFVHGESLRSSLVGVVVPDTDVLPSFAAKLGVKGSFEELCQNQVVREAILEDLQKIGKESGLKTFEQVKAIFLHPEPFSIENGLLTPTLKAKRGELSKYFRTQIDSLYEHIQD

[7] = biological target: Fatty acid CoA ligase Acsl3 (Homo sapiens, UniProt O95573); test: Inhibition of recombinant human ACSL3 assessed as reduction in […] prodution incubated for 90 mins in presence of Coenzyme A, ATP and MgCl2 by MALDI-TOF MS analysis
Sequence of Fatty acid CoA ligase Acsl3 (O95573 whole entry): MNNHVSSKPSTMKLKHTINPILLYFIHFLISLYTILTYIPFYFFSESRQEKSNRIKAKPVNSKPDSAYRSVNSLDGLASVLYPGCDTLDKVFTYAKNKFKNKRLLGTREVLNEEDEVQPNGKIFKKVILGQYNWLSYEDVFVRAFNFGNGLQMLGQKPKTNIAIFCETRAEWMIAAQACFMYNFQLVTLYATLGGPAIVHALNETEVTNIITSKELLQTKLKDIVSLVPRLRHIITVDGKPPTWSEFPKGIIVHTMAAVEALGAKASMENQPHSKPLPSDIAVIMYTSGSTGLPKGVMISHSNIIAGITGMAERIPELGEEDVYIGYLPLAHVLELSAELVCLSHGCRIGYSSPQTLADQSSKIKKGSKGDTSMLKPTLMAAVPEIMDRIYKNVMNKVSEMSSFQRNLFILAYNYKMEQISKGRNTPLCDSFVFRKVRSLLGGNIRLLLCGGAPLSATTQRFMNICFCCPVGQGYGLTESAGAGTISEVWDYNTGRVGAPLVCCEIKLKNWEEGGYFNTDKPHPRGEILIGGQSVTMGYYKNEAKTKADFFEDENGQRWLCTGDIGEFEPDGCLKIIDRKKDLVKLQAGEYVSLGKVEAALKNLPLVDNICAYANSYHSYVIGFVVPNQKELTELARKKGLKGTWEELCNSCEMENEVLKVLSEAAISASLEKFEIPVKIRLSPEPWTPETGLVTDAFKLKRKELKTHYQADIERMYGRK

Sequence of Long-chain-fatty-acid--CoA ligase 4 (O60488 whole entry): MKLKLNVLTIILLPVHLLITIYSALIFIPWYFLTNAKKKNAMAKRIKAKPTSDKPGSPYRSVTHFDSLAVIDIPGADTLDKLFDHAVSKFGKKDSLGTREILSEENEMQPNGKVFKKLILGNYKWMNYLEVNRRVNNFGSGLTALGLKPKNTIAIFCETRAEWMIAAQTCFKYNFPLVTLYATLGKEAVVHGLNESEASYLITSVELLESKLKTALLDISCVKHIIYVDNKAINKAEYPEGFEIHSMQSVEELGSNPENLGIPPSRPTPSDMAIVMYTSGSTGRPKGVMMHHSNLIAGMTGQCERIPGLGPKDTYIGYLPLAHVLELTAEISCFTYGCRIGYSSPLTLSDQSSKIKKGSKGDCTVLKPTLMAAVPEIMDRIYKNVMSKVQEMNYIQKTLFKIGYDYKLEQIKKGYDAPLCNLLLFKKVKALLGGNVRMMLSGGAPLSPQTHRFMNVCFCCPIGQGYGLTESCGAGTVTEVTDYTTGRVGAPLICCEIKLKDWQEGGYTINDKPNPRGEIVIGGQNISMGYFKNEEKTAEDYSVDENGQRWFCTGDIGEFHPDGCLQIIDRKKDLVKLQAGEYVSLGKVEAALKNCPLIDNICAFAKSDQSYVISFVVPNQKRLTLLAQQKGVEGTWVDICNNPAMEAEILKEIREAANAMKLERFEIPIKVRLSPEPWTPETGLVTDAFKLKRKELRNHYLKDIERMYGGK

Compound	IC50 [1]	IC50 [2]	also measured
Cc1cccc(Cc2nc3c(Cl)c(O[C@H]4CC[C@@H](C(=O)O)CC4)ccc3n2C)c1	56 µM	61 µM	
Cc1cccc(Cc2nc3nc(O[C@H]4CC[C@@H](C(=O)O)CC4)ccc3n2C)c1	0.079 µM	0.044 µM	
Cc1ccccc1Cc1nc2cc(O[C@H]3CC[C@@H](C(=O)O)CC3)ccc2n1C	5.4 µM	7.8 µM	
Cc1cccc(Cc2nc3cc(O[C@H]4CC[C@@H](C(N)=O)CC4)ccc3n2C)c1	0.19 µM	0.95 µM	
Cc1cccc(Cc2nc3cc(O[C@H]4CC[C@@H](C(=O)O)CC4)ccc3n2C(C)C)c1	> 200 µM	> 200 µM	
Cc1cccc(Cc2nc3cc(O[C@H]4CC[C@@H](c5nnn[nH]5)CC4)ccc3n2C)c1	0.025 µM	0.034 µM	
Cc1cccc(Cc2nc3cc(O[C@H]4CC[C@@H](C(=O)O)CC4)ccc3o2)c1	0.14 µM	0.039 µM	
Cn1c(Cc2cccnc2)nc2cc(O[C@H]3CC[C@@H](C(=O)O)CC3)ccc21	> 200 µM	141 µM	
Cc1cccc(Cc2c(C(N)=O)c3cc(O[C@H]4CC[C@@H](C(=O)O)CC4)ccc3n2C)c1	0.44 µM	0.6 µM	
Cc1cccc(COc2nc3cc(O[C@H]4CC[C@@H](C(=O)O)CC4)ccc3n2C)c1	8.1 µM	17 µM	
O=C(O)[C@H]1CC[C@@H](Oc2ccc3oc(-c4ccccc4)nc3c2)CC1	59 µM	4.4 µM	
O=c1c2ccccc2oc2ccc(O[C@H]3CC[C@H](C(=O)O)CC3)cc12	1.4 µM	0.24 µM	IC50 [3]: > 200 µM
Cc1cccc(Cc2nc3cc(O[C@H]4CC[C@@](F)(c5nnn[nH]5)CC4)ccc3n2C)c1	0.013 µM	0.013 µM	
Cc1cccc(Cc2cc3cc(O[C@H]4CC[C@@H](C(=O)O)CC4)ccc3n2C)c1	0.4 µM	0.4 µM	
Cn1c(Cc2ccc3c(c2)OCC3)nc2cc(O[C@H]3CC[C@@H](C(=O)O)CC3)ccc21	0.036 µM	0.013 µM	
Cn1c(Cc2cccc(C#N)c2)nc2cc(O[C@H]3CC[C@@H](C(=O)O)CC3)ccc21	22 µM	51 µM	
Cc1cccc(Cc2nc3cc(O[C@H]4CC[C@@H](C(=O)O)CC4)c(Cl)cc3n2C)c1	0.1 µM	0.047 µM	
Cc1cccc(Cc2nc3ccc(O[C@H]4CC[C@@H](C(=O)O)CC4)cc3n2C)c1	> 200 µM	> 200 µM	
Cc1cccc(Cc2nc3cc(O[C@H]4CC[C@@H](C(=O)O)CC4)cc(Cl)c3n2C)c1	0.17 µM	0.028 µM	

Compound	IC50 [1]	IC50 [2]	also measured
Cc1cccc(C(=O)c2nc3cc(O[C@H]4CC[C@@H](C(=O)O)CC4)ccc3n2C)c1		> 200 µM	
O=C(O)CCCCOc1ccc2oc3ccccc3c(=O)c2c1			IC50 [4]: 93 µM; IC50 [5]: > 200 µM; IC50 [6]: > 200 µM; IC50 [7]: > 200 µM; IC50 [3]: 1.7 µM
Cc1cccc(Cc2c(C#N)c3cc(O[C@H]4CC[C@@H](C(=O)O)CC4)ccc3n2C)c1	0.6 µM	1.9 µM	
Cn1c(Cc2ccc3c(c2)OCC3)nc2cc(O[C@H]3CC[C@@](F)(c4nnn[nH]4)CC3)ccc21	0.015 µM	0.003 µM	
Cn1c(Cc2cccc(C(F)(F)F)c2)nc2cc(O[C@H]3CC[C@@H](C(=O)O)CC3)ccc21	0.086 µM	0.19 µM	
O=C(O)C[C@H]1CC[C@H](Oc2ccc3oc4ccccc4c(=O)c3c2)CC1			IC50 [3]: > 200 µM
O=C(O)C[C@H]1CC[C@@H](Oc2ccc3oc4ccccc4c(=O)c3c2)CC1			IC50 [3]: 18 µM
O=C(O)[C@H]1CC[C@@H](Oc2ccc3c(c2)Cc2ccccc2O3)CC1	4 µM	4.6 µM	
O=c1c2ccccc2oc2ccc(OC[C@H]3CC[C@@H](C(=O)O)CC3)cc12			IC50 [3]: > 200 µM
O=c1c2ccccc2oc2ccc(O[C@H]3CC[C@@H](C(=O)O)CC3)cc12			IC50 [4]: 70 µM; IC50 [5]: > 200 µM; IC50 [6]: > 200 µM; IC50 [7]: 69 µM; IC50 [3]: 0.24 µM
Cc1cccc(Oc2nc3cc(O[C@H]4CC[C@@H](C(=O)O)CC4)ccc3n2C)c1	21 µM	78 µM	
Cc1ccc(Cc2nc3cc(O[C@H]4CC[C@@H](C(=O)O)CC4)ccc3n2C)cc1	0.08 µM	0.15 µM	
O=C(O)c1ccc(Oc2ccc3oc4ccccc4c(=O)c3c2)cc1			IC50 [3]: > 200 µM
Cc1cccc(Cc2nc3cc(O[C@H]4CC[C@@H](c5noc(=O)[nH]5)CC4)ccc3n2C)c1	0.1 µM	0.047 µM	
O=c1c2ccccc2oc2ccc(OC[C@H]3CC[C@H](C(=O)O)CC3)cc12			IC50 [3]: > 200 µM
Cc1cccc(Cn2nc3cc(O[C@H]4CC[C@@H](C(=O)O)CC4)ccc3c2C)c1	0.053 µM	0.045 µM	
Cc1cccc(Cc2nc3cc(O[C@H]4CC[C@@H](C(=O)O)CC4)ncc3n2C)c1	46 µM	41 µM	
O=C(O)CCCCCCOc1ccc2oc3ccccc3c(=O)c2c1			IC50 [4]: 6.2 µM; IC50 [5]: > 200 µM; IC50 [6]: > 200 µM; IC50 [7]: 114 µM; IC50 [3]: 0.31 µM
